The term IC50 denotes the midpoint of a concentration-inhibition curve. Lower therefore signals greater potency in that assay.

The subject of the test is P. falciparum 3D7 growth, pLDH absorbance. Nature of the test: P. falciparum 3D7 growth inhibition, dose response, strain 3D7 (AID 2305).

`CCCNCc1ccc(-c2ccc(CN(CCOC)C(=O)c3nn(-c4ccccc4)nc3C)cc2)nc1` came in with an IC50 of 730 nM.
The compound `CC(CN(C)C)C(=O)Nc1ccc(-c2cccc(-c3nc4ccc(C(F)(F)F)cc4[nH]3)c2)cc1` (stereo unspecified) showed a concentration for half-maximal inhibition (IC50) of 210 nM.
In turn, `CC(C)CN1CCC(N(C)c2cc(NC(=O)c3cccc(F)c3)ccn2)CC1` had an IC50 of 850 nM.
In the case of `Cc1ccc(-c2cc(C(=O)Nc3ccc(S(=O)(=O)N4CCCCC4)cc3)[nH]n2)c(O)c1`, the IC50 was determined as 1770 nM.
`Oc1ccc2[nH]c(-c3ccc(F)cc3F)nc2c1CN1CCC(O)(c2ccccc2)CC1`: the half-maximal inhibitory concentration (IC50) came to 840 nM. Compared with the last compound, the IC50 is about 2.1-fold lower.
In turn, `CC(C)c1ccc(NC(=S)NN=Cc2ccccn2)cc1` gave an IC50 of 720 nM.
The same measure for `CC(=O)c1c(Nc2c(C)cc(C)cc2C)oc(C)cc1=O`: 480 nM; for `Cc1ccc(Cn2ncc(NC3CCNCC3)c(Cl)c2=O)cc1NC(=O)Nc1ccc(-c2ccccc2)cc1`: 660 nM; for `O=C(c1cccc(-c2noc(C(F)(F)F)n2)c1)N1CCN(c2ccncc2)CC1`: 230 nM.
Turning to `COc1cc(NCCCNCc2cn(Cc3cc(Br)cc(Br)c3)c3ccccc23)nc2ccccc12`, the IC50 is 180 nM. The IC50 values of the last two compounds are within 1.5-fold of each other.
As to `CN(C)c1ccc(-c2csc(C(=O)NCC3CCN(CC4CCCCC4)C3)c2)cc1` (stereo unspecified), the half-inhibitory concentration (IC50) is 1140 nM.
Turning to `CN(C)CCN1CCN(Cc2ccc(-c3cccc(-c4nc5ccccc5[nH]4)c3)cc2)CC1`, the IC50 stood at 200 nM.
For `FC(F)(F)c1ccc2nccc(NCc3ccccc3)c2c1`, the half-inhibitory concentration (IC50) was found to be 1150 nM.
With `COc1c(C2CCN(CCCCNC(=O)c3ccc(-c4ccc(NC(=O)C(F)(F)F)cc4)cc3)CC2)ccc2c1CCCC2` the figure was 1000 nM.
With `O=C(N[C@@H](CC1CCCCC1)C(=O)NCCN1CCCC1)c1ccc(O)c(-c2cccc(C(F)(F)F)c2)c1` the figure was 760 nM; with `CCCCCCc1cc2cc(-c3nc(-c4ccc(OC)cc4)cs3)c(=O)oc2cc1O`, 820 nM; with `CC(C)COc1ccc(Cl)cc1Cc1nc(-c2nc3c(CN4CCN(C)CC4)cccc3[nH]2)cs1`, 1330 nM.
As to `Cc1cnc(C(=O)Nc2cccc(-c3cccc(-c4nc5ccc(F)cc5[nH]4)c3)c2)cn1`, the concentration for half-maximal inhibition (IC50) came out at 770 nM.
In turn, `C[C@H](Cc1ccc(OCCNC[C@H](O)c2cccc(Cl)c2)cc1)NC[C@H](O)c1ccc(Cl)c(Cl)c1` returned a half-maximal inhibitory concentration (IC50) of 960 nM.
The compound `O=C(NCC1CC1)C1CCN(C(c2ccccc2)c2cc(F)cc(F)c2)CC1` (stereo unspecified) yielded a half-maximal inhibitory concentration (IC50) of 380 nM.
`CC(C)CNCc1cccc(-c2cccc(CN(C(=O)Nc3ccccc3)C3CCN(Cc4ccccc4)CC3)c2)c1` registered a half-inhibitory concentration (IC50) of 370 nM.
On to `CCCCCCSc1nnc(COc2cccc3ccccc23)n1-c1ccc(OC)cc1`, for which the IC50 turned out to be 50 nM.
With `CC(=O)Nc1ccc(C(=O)Nc2cccc(-c3ccc(-c4nc5ccc(C(F)(F)F)cc5[nH]4)cc3)c2)cn1` the figure was 230 nM; with `COc1ccc(Nc2nc(NN=Cc3cc(Br)ccc3O)nc(Nc3ccc([N+](=O)[O-])cc3)n2)cc1`, 220 nM; with `COc1ccc2nccc(NN=Cc3ccccc3F)c2c1`, 620 nM.
For the compound `Oc1c(C(Nc2ccccn2)c2ccco2)cc(Cl)c2cccnc12` (stereo unspecified), the half-inhibitory concentration (IC50) came to 1010 nM.
With `Cc1c(C2CCN(CCCCNC(=O)c3ccc(-c4ccc(C#N)cc4)cc3)CC2)c2ccccc2n1CCO`, the half-maximal inhibitory concentration (IC50) is 1000 nM. The IC50 values of the last two compounds are within 1.5-fold of each other.
In turn, `CCc1cn2c3c(cc(C(=O)N[C@@H](Cc4cccc(F)c4)[C@H](O)CNC4CCOCC4)cc13)N(C)S(=O)(=O)CC2` yielded a concentration for half-maximal inhibition (IC50) of 70 nM.
With `Cc1nn(CCOC(=O)NC(NCC2COc3ccccc3O2)C(Cl)(Cl)Cl)cc1[N+](=O)[O-]` (stereo unspecified) the figure was 920 nM; with `CCCc1cc(N2CCC(N3CCCC3)CC2)nc(Nc2ccc(OC)cc2)n1`, 810 nM.
Regarding `NCc1ccc(CNCc2cccc(-c3ccc(-c4nc5ccc(C(F)(F)F)cc5[nH]4)cc3)c2)cc1`, the IC50 was 260 nM.
With `Cc1ccc(CN2CCC(C(=O)Nc3ccc(-c4cc5ccccc5[nH]4)cc3)CC2)o1` the figure was 1420 nM; with `CC(N)(Cc1ccc(O)cc1)c1nn[nH]n1` (stereo unspecified), 970 nM.
In turn, `CC(C)(C)CCOC(=O)N1CCc2c(cc(O)c(O)c2Cl)C(c2ccc(O)cc2)C1` (stereo unspecified) returned a half-maximal inhibitory concentration (IC50) of 750 nM.
For `O=C(Nc1ccc(F)cc1F)NC1CCN(c2ccnc3cc(Cl)ccc23)C1` (stereo unspecified), the IC50 stood at 250 nM. Against the preceding compound, the IC50 is about 3-fold lower.
In turn, `O=c1cc(NCCC(CNCc2ccc(Br)o2)NCc2cc(Br)cc(Br)c2)[nH]c2ccccc12` (stereo unspecified) showed a 50% inhibitory concentration (IC50) of 860 nM.
With `O=C(Nc1cccc(CN2CCCN(Cc3cccc(O)c3)CC2)c1)c1cc2ccccc2s1` the figure was 360 nM; with `COCCN1CCC(CNCC(C)(C)c2nc(-c3ccc(Cl)c(O)c3)c(-c3ccncc3)[nH]2)CC1`, 750 nM.
`CCOC(=O)C(C)(C)Oc1ccc(CN(Cc2ccc(CC(C)C)cc2)C(=O)Nc2ccc(F)cc2F)c(OC)c1` displayed an IC50 of 240 nM.
In the case of `CCNc1cc(C(=O)N[C@@H](Cc2ccccc2)[C@H](O)CNC2(C)CCCCC2)cc(N2CCCCS2(=O)=O)c1`, the IC50 came to 160 nM. This IC50 is about 1.5-fold lower than that of the compound before.
The same measure for `CC(=O)NCCNc1nccc(N2CCc3ncnc(Nc4ccc(OCc5cccc(F)c5)c(Cl)c4)c3C2)n1`: 130 nM.
Take `O=C(c1cccc(-c2cccc(-c3nc4ccc(C(F)(F)F)cc4[nH]3)c2)c1)N1CCCCC1CN1CCC(O)C1` (stereo unspecified): the concentration for half-maximal inhibition (IC50) was 280 nM. Compared with the last compound, the IC50 is about 2.2-fold higher.
`O=C(C=Cc1ccc(Cl)c(Cl)c1)NCCCCCN1CCC(CCCNS(=O)(=O)c2ccc(Br)cc2)CC1` had an IC50 of 1130 nM.
The compound `Cc1[nH]c(C)c(-c2ccc(OCc3ccccc3C(F)(F)F)nc2)c(=O)c1Br` had an IC50 of 20 nM. This IC50 lies about 56-fold lower than the previous one.
With `COc1ccccc1CCNc1nc(C)cc(N[C@@H](CC(C)C)C(=O)NCCc2ccccc2)n1` the figure was 720 nM.
Consider `COc1ccccc1-c1cccc(CNC2CCN(CC3Cn4c(=O)ccc5ccc(F)c3c54)CC2)c1` (stereo unspecified), for which the IC50 stood at 1380 nM.
In the case of `Cc1cc([N+](=O)[O-])ccc1N1CCN(CCCCNC(=O)c2ccc(NC(=O)c3ccc(Cl)cc3)cc2)CC1`, the IC50 turned out to be 890 nM.
As for `CN(C)CCN(Cc1ccccc1)c1ccc([N+](=O)[O-])cc1C(F)(F)F`, the IC50 turned out to be 780 nM.
Regarding `Fc1cccc(COc2ccc(Nc3ncnc4sc(C#CCNC5CCCC5)cc34)cc2Cl)c1`, the IC50 turned out to be 780 nM.
In turn, `COc1ccc2c(c1)OC(C)(C)CC2=NOS(=O)(=O)c1ccc(C)cc1` yielded an IC50 of 210 nM.
The compound `Oc1ccc(Nc2nc(NCc3ccccc3)c3ccccc3n2)cc1` registered a 50% inhibitory concentration (IC50) of 190 nM.
The same measure for `Nc1nc2c(c(=O)[nH]1)-c1cccc(Br)c1CC2`: 700 nM; for `CCOc1ccccc1C1CCN(CCCCNC(=O)c2ccc(NC(=O)c3ccc(Cl)cc3)cc2)CC1`: 850 nM; for `Fc1ccccc1COc1ccc(Nc2ncnc3ccc(I)cc23)cc1Cl`: 930 nM.
The compound `CC(=O)N(C)c1cccc(C(=O)Nc2cccc(-c3cccc(-c4nc5ccc(C(F)(F)F)cc5[nH]4)c3)c2)c1` gave a concentration for half-maximal inhibition (IC50) of 240 nM.
Turning to `COc1cc2nc(Nc3ccc(Oc4ccccc4)cc3)nc(Nc3ccc(Oc4ccccc4)cc3)c2cc1OC`, the IC50 turned out to be 930 nM.
Consider `Cc1oc(-c2ccc(Cl)cc2)cc1C(=O)NCCC1CCN(CCCCCNC(=O)/C=C/c2ccc(Cl)c(Cl)c2)CC1`, for which the IC50 was 450 nM.
Consider `CCN(CCCN1CCCCC1)c1cc(C)nc(Nc2ccc(C)c(Br)c2)n1`, for which the 50% inhibitory concentration (IC50) worked out at 250 nM.
For `COCCCNC(=O)[C@H]1CNCCN1C(=O)c1ccccc1`, the IC50 was determined as 800 nM.
The same measure for `O=C(NC1CC1)c1ccc(Nc2nccc(-c3c(-c4cccc(NC(=O)c5c(F)cccc5F)c4)nn4ccccc34)n2)cc1`: 410 nM; for `COc1ccc(CCCCN2C(=O)C(c3ccccc3)(c3ccccc3)N=C2N)cc1`: 860 nM.
Compound `CN1CCC(N2CCN(Cc3cccc(-c4ccc(-c5nc6ccccc6[nH]5)cc4)c3)CC2)CC1` registered a half-inhibitory concentration (IC50) of 160 nM.
`Cc1[nH]c(C)c(-c2ccc(OCCn3cnc(Cl)c3Cl)cc2)c(=O)c1Br` showed a half-maximal inhibitory concentration (IC50) of 850 nM. Against the preceding compound, the IC50 is about 5.3-fold higher.
The same measure for `CCCN(CCCCCCNCCc1ccc(Cl)cc1)CCc1ccc(O)c(O)c1`: 940 nM; for `O=C(Nc1cc(C(F)(F)F)cc(C(F)(F)F)c1)N1CCC(CCN2CCC(c3c[nH]c4ccccc34)CC2)CC1`: 1260 nM; for `NC12CC3CC(CC(C3)C1)C2`: 160 nM.
For `COc1ccc(-c2ccc(S(=O)(=O)Nc3cc4c(cc3OC(C)C)CCN(C)CC4)cc2)cc1`, the half-maximal inhibitory concentration (IC50) came out at 690 nM.
Compound `Cn1c(=O)c(-c2c(Cl)cccc2Cl)cc2cnc(Nc3ccc(N4CCOCC4)cc3)nc21` had a concentration for half-maximal inhibition (IC50) of 160 nM. Against the preceding compound, the IC50 is about 4.3-fold lower.
Compound `Cc1cc(NN=Cc2ccccc2[N+](=O)[O-])c2cc(C(F)(F)F)ccc2n1` had a 50% inhibitory concentration (IC50) of 750 nM.
`CN1CCC(NCc2ccc(-c3ccc(C(F)(F)F)cc3)cc2)CC1` registered an IC50 of 800 nM.
With `O=C(Nc1ccc(Cl)cc1)Nc1cccc(CCNCc2ccccc2)c1`, the IC50 is 730 nM. The IC50 values of the last two compounds are within 1.5-fold of each other.
Turning to `O=C(NCCCCN1CCC(c2ccc3c(c2OCc2ccncc2)CCCC3)CC1)c1ccc(NC(=O)c2ccc(Cl)cc2)cc1`, the IC50 came to 220 nM.
`O=C(Nc1ccc(SC(F)(F)F)cc1)Nc1ccc(Cl)c(Cl)c1` showed an IC50 of 910 nM. Against the preceding compound, the IC50 is about 4.1-fold higher.
In turn, `COc1ccc2cc(C(C)NC3CCN(c4cccc(NC(=O)c5ccncc5)c4)CC3)ccc2c1` (stereo unspecified) returned an IC50 of 1550 nM.
`Fc1ccc2[nH]cc(CCN3CCC(CNCc4ccccc4)CC3)c2c1` yielded an IC50 of 30 nM. This IC50 is about 52-fold lower than that of the compound before.
Take `CCOc1ccccc1CCNCC1CCN(CC2CCCCC2)CC1`: the IC50 was found to be 780 nM.
The same measure for `ON=C1CCc2cc(-c3nc(-c4cccc(OCCNCc5ccc(F)cc5)c4)[nH]c3-c3ccncc3)ccc21`: 890 nM.
On to `COc1nc2c(CCN3CC[C@@H](NCc4cc(C#N)c5c(c4)CCO5)[C@@H](O)C3)ccnc2cc1F`, for which the IC50 worked out at 1030 nM.
The compound `C=C(NC(=O)c1cc(C)cc(C)c1)C(=O)OC` gave an IC50 of 170 nM.
With `CC(Cc1ccc(NC(=O)[C@H](C)NCCc2cccc(Cl)c2)cc1)NCCc1cccc(Cl)c1` (stereo partly specified) the figure was 660 nM; with `O=C(Nc1ccc(Oc2ccccc2)cc1)N(Cc1ccc(-c2cccc(CN3CCNCC3)c2)cc1)C1CCN(Cc2ccccc2)CC1`, 880 nM.
Take `CCNc1cc(C(=O)N[C@@H](Cc2ccco2)[C@H](O)CNC2CCCCC2)cc(N2CCCCS2(=O)=O)c1`: the half-maximal inhibitory concentration (IC50) was 1010 nM.
As to `Cc1ccc2sc(N(CCCn3ccnc3)C(=O)c3ccco3)nc2c1C`, the IC50 stood at 970 nM.
`Nc1cccc(C=CC(=O)Nc2ccnc3ccccc23)c1` came in with a half-maximal inhibitory concentration (IC50) of 1060 nM. This IC50 and that of the compound before are within 1.5-fold of each other.
In the case of `O=c1c(NCCCN(Cc2ccc(F)cc2)c2ccccn2)c(NCc2cccnc2)c1=O`, the 50% inhibitory concentration (IC50) was determined as 60 nM.
`O=C(Nc1ccc(-c2cccc(-c3nc4ccc(C(F)(F)F)cc4[nH]3)c2)cc1)Nc1ccc(F)c(F)c1F`: the IC50 came out at 710 nM. Against the preceding compound, the IC50 is about 12-fold higher.

These data come from PubChem BioAssay AID2305 (GlaxoSmithKline (GSK), 2010).
